Measurements taken from ChEMBL document CHEMBL1201862, “PubChem BioAssay data set” (2004).
Calls of active or inactive are those of the source.

What was measured:
Phosphomannomutase 2 = Phosphomannomutase 2 (Homo sapiens, UniProt O15305); assay: Counter screen SAR assay for PMM2 inhibitors via a fluorescence intensity assay. [Related pubchem assays (depositor defined):AID1545, AID1574]
[1] = molecular target: T1, Heat shock factor protein 1 (Mus musculus, UniProt P38532); assay: HSF1 potentiators in luciferase reporter cells, confirmation, cell-based, NIH3T3, luminescence, dose retest (AID 435004); assay type: functional;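 also: stress induced by proteasome inhibitor MG132 added 30 min after compound; luciferase reporter driven by HSF1 response element in NIH3T3 cells; actives raise luminescence as potentiators of the MG132 stress response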
T1 sequence (P38532 whole entry): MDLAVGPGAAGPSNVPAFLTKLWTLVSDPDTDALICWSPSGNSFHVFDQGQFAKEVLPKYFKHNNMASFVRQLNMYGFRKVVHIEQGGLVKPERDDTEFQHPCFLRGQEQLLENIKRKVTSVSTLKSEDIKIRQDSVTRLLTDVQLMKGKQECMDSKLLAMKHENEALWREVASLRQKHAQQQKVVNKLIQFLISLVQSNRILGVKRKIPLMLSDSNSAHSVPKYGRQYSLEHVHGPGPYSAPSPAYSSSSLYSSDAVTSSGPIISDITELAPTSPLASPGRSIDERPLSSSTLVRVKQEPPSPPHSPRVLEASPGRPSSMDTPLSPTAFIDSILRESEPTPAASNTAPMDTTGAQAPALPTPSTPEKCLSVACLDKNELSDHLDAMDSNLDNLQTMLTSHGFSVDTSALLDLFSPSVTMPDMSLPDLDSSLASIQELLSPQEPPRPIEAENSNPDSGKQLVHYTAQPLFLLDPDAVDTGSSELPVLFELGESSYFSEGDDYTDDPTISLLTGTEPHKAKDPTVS

X-box-binding protein 1 = X-box-binding protein 1 (Homo sapiens, UniProt P17861); assay type: functional, Cricetulus griseus;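 also: confirmatory dose-response counter-screen serving a CHOP assay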
INS1 = assay: beta cell apoptosis inhibitors, cytokine rescue, dose response, luminescence, retest (AID 449756); assay type: functional, cell-based; settings: Rattus norvegicus;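 also: cell death triggered by IL-1 beta plus TNF-alpha plus IFN-gamma mixture; protective hits raise ATP signal compared with cytokine alone wells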
Paired box protein Pax-8 = Paired box protein Pax-8 (Homo sapiens, UniProt Q06710); assay: inhibitors of PAX8-driven TPO luciferase reporter, dose response, RMG-I cells, cherry-pick (AID 687027); assay type: functional, cell-based;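 also: luciferase reporter driven by Pax8 target thyroperoxidase promoter measured by SteadyGlo luminescence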
[2] = molecular target: T2, Delta-type opioid receptor (Homo sapiens, UniProt P41143); assay: HTS Image-Based Screen for Antagonists of the DOR Receptor. [Related pubchem assays (depositor defined):AID1777, AID1785, AID1786, AID2133]; assay type: functional
Mu-type opioid receptor = Mu-type opioid receptor (Homo sapiens, UniProt P35372); assay: HTS Image-Based Screen for Agonists of the MOR Receptor. [Related pubchem assays (depositor defined):AID1777, AID1785, AID1786, AID2133]; assay type: functional;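 also: imaging of beta-arrestin GFP recruitment into spots after receptor activation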
[3] = molecular target: T2, Delta-type opioid receptor; assay: HTS Image-Based Screen for Agonists of the DOR Receptor. [Related pubchem assays (depositor defined):AID1777, AID1786, AID2133]; assay type: functional
[4] = molecular target: T3, Kappa-type opioid receptor (Homo sapiens, UniProt P41145); assay type: functional
Beta-galactosidase = Beta-galactosidase (Escherichia coli, UniProt Q8VNN2); assay type: functional
[5] = molecular target: T3, Kappa-type opioid receptor; assay type: functional; remark: listed apart in the source
[6] = molecular target: T4, Tyrosine-protein phosphatase non-receptor type 7 (Homo sapiens, UniProt P35236); assay type: functional
T4 sequence (P35236 whole entry): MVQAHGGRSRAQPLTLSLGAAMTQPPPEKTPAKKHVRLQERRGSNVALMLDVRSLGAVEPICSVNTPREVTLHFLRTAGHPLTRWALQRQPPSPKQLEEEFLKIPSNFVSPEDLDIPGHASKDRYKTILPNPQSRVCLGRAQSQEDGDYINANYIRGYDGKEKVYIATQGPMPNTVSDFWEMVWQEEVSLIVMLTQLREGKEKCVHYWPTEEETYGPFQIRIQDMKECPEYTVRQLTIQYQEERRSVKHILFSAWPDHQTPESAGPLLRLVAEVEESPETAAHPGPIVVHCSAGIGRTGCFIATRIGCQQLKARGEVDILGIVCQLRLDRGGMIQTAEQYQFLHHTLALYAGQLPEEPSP

[7] = molecular target: T5, Tyrosine-protein phosphatase non-receptor type 22 (Homo sapiens, UniProt Q9Y2R2); assay type: functional
T5 sequence (Q9Y2R2 whole entry): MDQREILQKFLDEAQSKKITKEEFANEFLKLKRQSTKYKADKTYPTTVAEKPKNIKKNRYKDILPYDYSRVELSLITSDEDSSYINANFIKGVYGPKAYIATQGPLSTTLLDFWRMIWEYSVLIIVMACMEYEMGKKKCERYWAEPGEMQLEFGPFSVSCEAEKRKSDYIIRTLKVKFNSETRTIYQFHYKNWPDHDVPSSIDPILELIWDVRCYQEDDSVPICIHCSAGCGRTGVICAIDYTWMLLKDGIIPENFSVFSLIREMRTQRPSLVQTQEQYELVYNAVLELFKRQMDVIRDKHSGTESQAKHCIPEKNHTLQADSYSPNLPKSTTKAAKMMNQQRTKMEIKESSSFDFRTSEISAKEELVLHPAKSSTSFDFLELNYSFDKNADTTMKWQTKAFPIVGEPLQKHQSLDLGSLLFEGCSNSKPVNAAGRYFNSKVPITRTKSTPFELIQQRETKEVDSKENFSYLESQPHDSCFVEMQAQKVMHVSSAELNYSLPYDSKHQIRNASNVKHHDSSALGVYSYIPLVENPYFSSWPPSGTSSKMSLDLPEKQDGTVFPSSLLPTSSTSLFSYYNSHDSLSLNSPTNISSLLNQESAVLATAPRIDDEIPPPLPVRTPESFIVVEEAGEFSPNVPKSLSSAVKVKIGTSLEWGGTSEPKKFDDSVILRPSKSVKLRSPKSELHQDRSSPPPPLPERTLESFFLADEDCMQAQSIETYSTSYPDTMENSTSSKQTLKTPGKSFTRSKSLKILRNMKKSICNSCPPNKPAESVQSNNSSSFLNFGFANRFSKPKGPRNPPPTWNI

[8] = molecular target: T5, Tyrosine-protein phosphatase non-receptor type 22; assay type: functional; remark: listed apart in the source
Hexokinase HKDC1 = molecular target: T6, Hexokinase HKDC1 (Homo sapiens, UniProt Q2TB90); assay: HKDC1 hexokinase activators, dose response, biochemical, W721R variant (AID 504730); assay type: functional
T6 sequence (Q2TB90 whole entry): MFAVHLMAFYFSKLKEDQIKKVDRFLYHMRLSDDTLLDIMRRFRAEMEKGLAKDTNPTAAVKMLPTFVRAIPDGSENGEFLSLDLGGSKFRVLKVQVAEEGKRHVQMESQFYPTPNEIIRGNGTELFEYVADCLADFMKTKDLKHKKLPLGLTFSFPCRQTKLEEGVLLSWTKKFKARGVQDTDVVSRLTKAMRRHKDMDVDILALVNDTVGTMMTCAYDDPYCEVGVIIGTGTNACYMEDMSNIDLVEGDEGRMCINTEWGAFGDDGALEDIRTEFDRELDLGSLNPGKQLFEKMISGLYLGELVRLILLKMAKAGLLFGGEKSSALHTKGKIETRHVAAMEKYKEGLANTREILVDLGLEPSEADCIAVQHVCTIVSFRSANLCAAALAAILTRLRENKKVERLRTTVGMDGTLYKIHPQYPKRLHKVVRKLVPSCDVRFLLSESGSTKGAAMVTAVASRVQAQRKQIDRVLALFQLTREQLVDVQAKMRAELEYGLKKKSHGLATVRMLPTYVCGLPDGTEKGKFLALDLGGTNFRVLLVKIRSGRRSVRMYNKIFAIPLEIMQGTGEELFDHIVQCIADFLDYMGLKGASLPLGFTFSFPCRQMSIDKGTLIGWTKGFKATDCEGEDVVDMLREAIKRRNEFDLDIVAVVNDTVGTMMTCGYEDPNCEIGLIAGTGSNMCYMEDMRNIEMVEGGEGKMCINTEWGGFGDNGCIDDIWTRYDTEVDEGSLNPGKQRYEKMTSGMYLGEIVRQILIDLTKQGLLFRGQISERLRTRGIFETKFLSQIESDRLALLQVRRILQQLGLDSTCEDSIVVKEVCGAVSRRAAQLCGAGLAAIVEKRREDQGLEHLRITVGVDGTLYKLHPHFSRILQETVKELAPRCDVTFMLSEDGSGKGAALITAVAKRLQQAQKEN

Hexokinase-1 = Hexokinase-1 (Homo sapiens, UniProt P19367); assay: hexokinase 1 activators, dose response, selectivity assay for HKDC1 activator project, biochemical (AID 504762); assay type: functional
Nonstructural protein 1 = Nonstructural protein 1 (Influenza A virus, UniProt Q194T2); assay type: functional, Influenza A virus (A/California/07/2009(H1N1))
SUMO-activating enzyme = SUMO-activating enzyme (Homo sapiens, UniProt Q9UBT2); assay: SUMOylation inhibitor hit validation, confirmation, SUMOylation inhibitor project, biochemical, AlphaScreen (AID 2018); assay type: functional
[9] = molecular target: T7, Mannose-6-phosphate isomerase (Homo sapiens, UniProt P34949); assay: human PMI inhibitors, high substrate, primary screen, biochemical, fluorescence intensity, high mannose 6-phosphate (AID 1220)
T7 sequence (P34949 whole entry): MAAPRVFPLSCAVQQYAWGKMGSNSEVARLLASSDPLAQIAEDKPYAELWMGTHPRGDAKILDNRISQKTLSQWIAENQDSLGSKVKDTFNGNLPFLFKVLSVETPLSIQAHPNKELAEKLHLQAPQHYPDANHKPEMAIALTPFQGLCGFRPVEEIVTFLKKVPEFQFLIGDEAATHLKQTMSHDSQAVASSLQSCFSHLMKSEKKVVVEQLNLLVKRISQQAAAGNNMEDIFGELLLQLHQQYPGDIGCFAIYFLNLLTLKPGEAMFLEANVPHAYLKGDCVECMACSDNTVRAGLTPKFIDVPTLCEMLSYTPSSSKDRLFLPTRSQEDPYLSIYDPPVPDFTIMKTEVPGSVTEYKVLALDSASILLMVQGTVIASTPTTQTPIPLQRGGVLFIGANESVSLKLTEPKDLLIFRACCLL

[10] = inhibitors of intracellular T. cruzi replication, confirmation, NIH3T3 host cells, beta-gal luminescence (AID 2044); assay type: functional, cell-based;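 also: intracellular parasites grown in NIH/3T3 mouse fibroblasts as host cells; luminescent beta-galactosidase reporter signal from transgenic T. cruzi replicating inside host cells; inhibitors lower the luminescence signal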
CHO-K1 = assay: (§1) Counterscreen for antagonists of the orexin 1 receptor (OX1R; HCRTR1): Homogeneous time resolved fluorescence (HTRF)-based cell-based dose response assay to identify antagonists of the parental CHO-K1 cell line. [Related pubchem assays (depositor defined):AID434989, AID435008, AID463079, AID485270, AID492963, AID492964, AID492965, AID493232, AID504699, AID504701]; assay type: functional; settings: Cricetulus griseus
[11] = as §1, with “Fluorescence-based” for “Homogeneous time resolved fluorescence (HTRF)-based”, “cell-based high throughput” for “cell-based”, “CHO” for “CHO-K1”; assay type: functional
[12] = molecular target: T8, Orexin/Hypocretin receptor type 1 (Homo sapiens, UniProt O43613); assay: Homogeneous Time Resolved Fluorescence (HTRF)-based cell-based high throughput dose response assay for antagonists of the orexin 1 receptor (OX1R; HCRTR1). [Related pubchem assays (depositor defined):AID434989, AID435008, AID463079, AID485270, AID492963, AID492964, AID492965, AID493232, AID504717, AID504718]; assay type: functional
T8 sequence (O43613 whole entry): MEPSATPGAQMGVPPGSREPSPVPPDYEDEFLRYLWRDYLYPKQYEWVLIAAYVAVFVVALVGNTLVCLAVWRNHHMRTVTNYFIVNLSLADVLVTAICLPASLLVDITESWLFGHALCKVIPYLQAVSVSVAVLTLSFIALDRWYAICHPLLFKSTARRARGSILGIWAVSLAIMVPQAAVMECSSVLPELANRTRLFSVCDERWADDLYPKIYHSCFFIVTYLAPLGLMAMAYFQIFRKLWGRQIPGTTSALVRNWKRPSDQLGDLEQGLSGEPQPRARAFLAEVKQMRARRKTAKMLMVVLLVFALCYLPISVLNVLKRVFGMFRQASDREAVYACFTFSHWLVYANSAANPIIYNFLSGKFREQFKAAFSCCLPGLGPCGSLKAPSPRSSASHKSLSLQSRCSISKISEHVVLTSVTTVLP

[13] = molecular target: T8, Orexin/Hypocretin receptor type 1; assay: Fluorescence-based cell-based high throughput dose response assay for antagonists of the orexin 1 receptor (OX1R; HCRTR1). [Related pubchem assays (depositor defined):AID434989, AID435008, AID463079, AID485270, AID492963, AID492964, AID492965, AID493232, AID504717, AID504718]; assay type: functional
Cytochrome P450 2D6 = Cytochrome P450 2D6 (Homo sapiens, UniProt P10635);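 also: CYP2D6 member of a cytochrome P450 panel assay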
Cytochrome P450 2D6, sequence (P10635 whole entry): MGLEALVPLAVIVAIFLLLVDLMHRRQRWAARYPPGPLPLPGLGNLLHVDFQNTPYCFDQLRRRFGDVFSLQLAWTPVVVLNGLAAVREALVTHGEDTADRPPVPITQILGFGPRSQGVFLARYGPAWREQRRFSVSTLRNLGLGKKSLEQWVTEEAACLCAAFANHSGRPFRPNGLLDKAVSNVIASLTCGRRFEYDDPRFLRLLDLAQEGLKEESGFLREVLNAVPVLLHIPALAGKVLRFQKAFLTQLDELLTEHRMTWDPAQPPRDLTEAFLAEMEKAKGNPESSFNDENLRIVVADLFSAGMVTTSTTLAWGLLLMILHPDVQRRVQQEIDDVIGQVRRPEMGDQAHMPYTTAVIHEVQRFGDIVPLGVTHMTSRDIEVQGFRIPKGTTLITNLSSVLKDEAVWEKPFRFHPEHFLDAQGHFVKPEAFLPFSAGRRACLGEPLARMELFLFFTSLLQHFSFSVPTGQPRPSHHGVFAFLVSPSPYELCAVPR

T3 sequence (P41145 whole entry): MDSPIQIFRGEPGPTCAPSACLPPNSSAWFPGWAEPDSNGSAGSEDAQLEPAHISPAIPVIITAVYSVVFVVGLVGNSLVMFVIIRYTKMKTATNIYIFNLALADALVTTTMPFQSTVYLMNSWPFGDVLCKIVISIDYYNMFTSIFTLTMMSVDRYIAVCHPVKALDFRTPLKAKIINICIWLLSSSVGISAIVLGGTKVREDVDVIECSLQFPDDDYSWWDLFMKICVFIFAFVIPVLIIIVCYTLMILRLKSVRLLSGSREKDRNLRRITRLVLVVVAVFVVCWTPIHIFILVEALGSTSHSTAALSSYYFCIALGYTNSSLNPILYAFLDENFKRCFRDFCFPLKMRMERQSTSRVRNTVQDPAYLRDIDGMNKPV
T2 sequence (P41143 whole entry): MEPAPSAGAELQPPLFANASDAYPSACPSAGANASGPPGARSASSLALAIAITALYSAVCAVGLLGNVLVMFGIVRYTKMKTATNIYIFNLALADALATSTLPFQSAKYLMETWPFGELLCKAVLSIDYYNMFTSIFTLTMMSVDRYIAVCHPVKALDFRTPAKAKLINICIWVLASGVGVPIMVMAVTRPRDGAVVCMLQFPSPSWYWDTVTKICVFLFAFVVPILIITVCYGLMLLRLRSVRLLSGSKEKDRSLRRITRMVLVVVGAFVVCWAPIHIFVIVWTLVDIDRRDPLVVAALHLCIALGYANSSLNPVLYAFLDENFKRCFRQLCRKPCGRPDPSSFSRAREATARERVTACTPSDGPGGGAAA
Hexokinase-1, sequence (P19367 whole entry): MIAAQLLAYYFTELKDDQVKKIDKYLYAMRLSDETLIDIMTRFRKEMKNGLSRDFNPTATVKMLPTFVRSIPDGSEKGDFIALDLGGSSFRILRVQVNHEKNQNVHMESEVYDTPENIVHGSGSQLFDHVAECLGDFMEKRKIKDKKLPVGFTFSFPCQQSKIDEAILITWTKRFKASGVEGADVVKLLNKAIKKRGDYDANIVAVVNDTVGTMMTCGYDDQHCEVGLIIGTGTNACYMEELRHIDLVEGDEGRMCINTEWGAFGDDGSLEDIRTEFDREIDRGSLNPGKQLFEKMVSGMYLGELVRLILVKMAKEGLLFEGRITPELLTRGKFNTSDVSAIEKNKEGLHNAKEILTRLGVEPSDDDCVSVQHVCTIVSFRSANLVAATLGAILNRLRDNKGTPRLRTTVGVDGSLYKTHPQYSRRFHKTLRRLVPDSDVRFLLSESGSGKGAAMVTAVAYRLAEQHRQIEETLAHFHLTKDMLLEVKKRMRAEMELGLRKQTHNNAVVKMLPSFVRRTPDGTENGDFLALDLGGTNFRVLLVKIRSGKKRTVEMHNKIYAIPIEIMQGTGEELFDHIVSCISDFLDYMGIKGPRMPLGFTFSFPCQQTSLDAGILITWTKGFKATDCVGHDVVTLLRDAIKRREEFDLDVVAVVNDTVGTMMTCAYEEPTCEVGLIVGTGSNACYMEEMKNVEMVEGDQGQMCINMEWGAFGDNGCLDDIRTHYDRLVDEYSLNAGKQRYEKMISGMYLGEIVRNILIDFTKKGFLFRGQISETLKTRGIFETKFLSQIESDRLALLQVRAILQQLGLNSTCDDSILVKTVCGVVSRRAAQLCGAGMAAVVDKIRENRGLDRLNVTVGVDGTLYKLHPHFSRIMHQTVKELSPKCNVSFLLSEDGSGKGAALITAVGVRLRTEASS
Phosphomannomutase 2, sequence (O15305 whole entry): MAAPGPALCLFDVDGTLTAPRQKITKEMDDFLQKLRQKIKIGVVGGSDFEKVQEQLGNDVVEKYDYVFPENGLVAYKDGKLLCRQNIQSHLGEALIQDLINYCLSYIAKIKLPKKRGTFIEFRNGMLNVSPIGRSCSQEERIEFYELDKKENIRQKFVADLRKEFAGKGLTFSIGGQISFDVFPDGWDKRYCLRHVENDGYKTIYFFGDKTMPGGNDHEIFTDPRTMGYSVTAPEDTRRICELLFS
X-box-binding protein 1, sequence (P17861 whole entry): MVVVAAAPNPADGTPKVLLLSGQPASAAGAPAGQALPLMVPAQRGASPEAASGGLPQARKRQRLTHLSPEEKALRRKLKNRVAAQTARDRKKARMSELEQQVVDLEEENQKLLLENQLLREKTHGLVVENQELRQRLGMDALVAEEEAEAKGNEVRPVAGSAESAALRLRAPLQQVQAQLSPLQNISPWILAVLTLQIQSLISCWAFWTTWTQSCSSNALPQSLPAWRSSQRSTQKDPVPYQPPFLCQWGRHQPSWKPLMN
SUMO-activating enzyme, sequence (Q9UBE0 whole entry): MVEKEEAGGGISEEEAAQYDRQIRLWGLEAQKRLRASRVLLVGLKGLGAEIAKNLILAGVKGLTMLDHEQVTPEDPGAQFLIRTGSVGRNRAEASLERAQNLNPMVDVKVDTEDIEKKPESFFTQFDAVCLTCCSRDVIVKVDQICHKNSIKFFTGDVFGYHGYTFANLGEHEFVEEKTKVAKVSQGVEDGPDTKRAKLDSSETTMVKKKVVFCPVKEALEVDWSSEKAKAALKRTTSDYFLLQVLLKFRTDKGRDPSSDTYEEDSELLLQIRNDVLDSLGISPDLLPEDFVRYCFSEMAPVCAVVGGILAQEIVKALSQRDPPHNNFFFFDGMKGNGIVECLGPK
SUMO-activating enzyme, sequence (Q9UBT2 whole entry): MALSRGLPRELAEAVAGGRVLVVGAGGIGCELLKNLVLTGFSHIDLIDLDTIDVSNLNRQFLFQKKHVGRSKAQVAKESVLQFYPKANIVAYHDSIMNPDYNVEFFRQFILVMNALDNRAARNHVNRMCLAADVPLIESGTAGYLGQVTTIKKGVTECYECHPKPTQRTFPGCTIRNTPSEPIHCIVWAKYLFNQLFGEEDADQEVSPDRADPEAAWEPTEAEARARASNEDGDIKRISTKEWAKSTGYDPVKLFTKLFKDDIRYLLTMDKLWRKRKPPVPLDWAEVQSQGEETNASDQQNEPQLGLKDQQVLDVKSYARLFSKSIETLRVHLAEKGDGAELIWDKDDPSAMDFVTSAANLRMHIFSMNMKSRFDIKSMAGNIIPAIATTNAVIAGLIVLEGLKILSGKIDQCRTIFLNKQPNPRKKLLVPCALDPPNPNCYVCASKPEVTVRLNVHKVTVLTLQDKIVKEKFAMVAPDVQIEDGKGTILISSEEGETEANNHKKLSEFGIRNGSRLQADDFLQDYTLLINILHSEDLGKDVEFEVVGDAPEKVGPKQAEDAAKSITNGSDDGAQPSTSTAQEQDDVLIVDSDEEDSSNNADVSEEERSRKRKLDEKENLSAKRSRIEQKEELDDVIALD
Mu-type opioid receptor, sequence (P35372 whole entry): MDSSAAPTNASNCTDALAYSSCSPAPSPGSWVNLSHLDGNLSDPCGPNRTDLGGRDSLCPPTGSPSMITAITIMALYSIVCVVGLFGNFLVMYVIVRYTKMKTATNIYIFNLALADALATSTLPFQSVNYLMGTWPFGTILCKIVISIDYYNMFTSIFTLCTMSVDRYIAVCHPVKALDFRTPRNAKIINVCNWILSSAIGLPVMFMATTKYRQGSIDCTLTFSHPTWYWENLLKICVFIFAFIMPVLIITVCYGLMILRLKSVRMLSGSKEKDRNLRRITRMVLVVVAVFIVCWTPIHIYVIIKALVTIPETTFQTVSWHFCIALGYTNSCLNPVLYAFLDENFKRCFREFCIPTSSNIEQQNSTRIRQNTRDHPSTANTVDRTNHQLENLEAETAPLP
Nonstructural protein 1, sequence (Q194T2 whole entry): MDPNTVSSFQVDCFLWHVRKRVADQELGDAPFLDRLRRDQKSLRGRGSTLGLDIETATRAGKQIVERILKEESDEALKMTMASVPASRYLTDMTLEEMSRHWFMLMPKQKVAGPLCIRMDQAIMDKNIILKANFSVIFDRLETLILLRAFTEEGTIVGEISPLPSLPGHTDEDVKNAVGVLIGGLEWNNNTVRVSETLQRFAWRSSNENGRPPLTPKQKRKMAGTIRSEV
Paired box protein Pax-8, sequence (Q06710 whole entry): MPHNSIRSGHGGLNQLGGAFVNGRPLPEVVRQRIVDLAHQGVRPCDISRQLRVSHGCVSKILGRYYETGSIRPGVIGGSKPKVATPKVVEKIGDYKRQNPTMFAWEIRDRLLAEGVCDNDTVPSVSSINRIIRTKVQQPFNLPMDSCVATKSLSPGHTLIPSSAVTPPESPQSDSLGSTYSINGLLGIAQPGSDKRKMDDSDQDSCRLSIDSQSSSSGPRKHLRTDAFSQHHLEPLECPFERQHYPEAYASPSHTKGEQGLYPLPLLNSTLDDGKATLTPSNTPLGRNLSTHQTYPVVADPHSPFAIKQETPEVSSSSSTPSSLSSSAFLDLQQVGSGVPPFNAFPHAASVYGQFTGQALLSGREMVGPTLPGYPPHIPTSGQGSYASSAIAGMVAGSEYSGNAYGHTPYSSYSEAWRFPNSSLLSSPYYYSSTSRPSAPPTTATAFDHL

## CSc1nc(-c2ccccc2)nc(C(Cl)Cl)n1
Phosphomannomutase 2
  IC50: > 100 µM (inactive)
[1]
  EC50: 2.7 µM (active)
X-box-binding protein 1
  Absolute IC50 (XBP1): 10 µM
INS1
  AC50: 3.69 µM (active)
Paired box protein Pax-8
  AC50: 2.26 µM (active)

## COc1ccc(N2CCN(CCCNC(=O)C(=O)c3c(C)n(C)c4ccccc34)CC2)cc1
[2]
  IC50: > 32 µM (inactive)
Mu-type opioid receptor
  EC50: > 32 µM (inactive)
[3]
  EC50: > 32 µM (inactive)
[4]
  IC50: 18.3 µM (active)
Beta-galactosidase
  EC50: > 31.5 µM (inactive)
[5]
  IC50: 6.16 µM

## O=C(Nc1nccs1)c1ccc(S(=O)(=O)NCc2cccs2)cc1
[6]
  IC50: > 79.4 µM (inactive)
[7]
  IC50: > 79.4 µM (inactive)
[8]
  IC50: > 79.4 µM (inactive)

## COc1ccc(-c2nc3c(c(=O)n(C)c(=O)n3C)n2CC2CC(c3ccccc3)=NO2)cc1OC (stereo not drawn)
Hexokinase HKDC1
  EC50: 33.4 µM (inactive)
Hexokinase-1
  EC50: 35.1 µM (inactive)

## O=C(NC(=S)NNC(=O)c1cnccn1)c1ccc(F)cc1
Hexokinase HKDC1
  EC50: 14.5 µM (active)
Nonstructural protein 1
  IC50: 2.95 µM (active)
Hexokinase-1
  EC50: > 80 µM (inactive)
INS1
  AC50: 0.889 µM (active)

## C/C(=N\NC(=O)CNc1cccc2ccccc12)c1ccccc1
SUMO-activating enzyme
  IC50: > 100 µM (inactive)
[9]
  IC50: > 50 µM (not active)

## NC(=S)N/N=C/c1ccccc1OCc1cccc(Cl)c1
[10]
  EC50: 0.323 µM (active)
CHO-K1
  IC50: > 66.2 µM (inactive)
[11]
  IC50: > 49.7 µM (inactive)
[12]
  IC50: 2.71 µM (active)
[13]
  IC50: 7.74 µM (active)
Cytochrome P450 2D6
  AC50: inconclusive
